Assay results published in US11179410B2, “Pharmaceutical composition for improving, preventing or treating muscle related disease comprising ginsenoside Rh2” (KOREA ADVANCED INSTITUTE OF SCIENCE AND TECHNOLOGY, priority 2018, dated 2021).

What was measured:
Assay type in all cases: cell-based, mouse
[1] = system: MSTN-induced atrophic myotube cells (C2C12); assay: Myotube width in MSTN-induced atrophic myotubes treated with Rh2
Method: C2C12 myotube cells were fixed with 4% (w/v) paraformaldehyde (Biosesang) for 15 minutes and then treated with 0.2% (v/v) Triton X-100, and blocked with 5% (w/v) BSA for 6 h. The cells were then stained with Myosin Heavy Chain (MHC) antibody (Santa Cruz, sc-20641, 1: 1000) for 12 h at 4° C. and then incubated with Alexa Fluor 488 conjugated secondary antibody at room temperature for 4 h. Images were acquired via HCS equipment (Molecular Devices) and quantified using ImageJ software. The width of myotube cells was quantified by measuring a total of more than 100 myotube cell widths in randomly selected five regions. The width per myotube was determined as the average of three independent measurements.
To investigate the effect of Rh2 on MSTN-induced atrophy, myotubes were treated with 0.4 ug/ml MSTN alone for 24 hours or treated with combination of 0.4 ug/ml MSTN and 1 ug/ml or 10 ug/ml Rh2 (Sigma, 73658) for 24 hours. In order to measure the change of the myotube width, the myotube cells were stained with MHC antibody as in the above Experimental Example 1, and cell images were obtained using HCS, and the width of myotube was quantified using ImageJ.

pSmad2/Smad2 = assay: Western blotting of pSmad2 in MSTN-induced atrophic myotube cells
Method: (§1) MSTN is known to induce atrophy by increasing UPP-mediated protein degradation through activation of the ActRIIB-Smad2 signaling pathway. Phosphorylated Smad2 (pSmad2) activates this UPP-mediated proteolytic signaling. Activated UPP is involved in the degradation of MyoD and is regulated by the E3 ligase, MAFbx. To investigate the mechanism of Rh2 in this signal transduction, changes of the amount of Rh2-induced phosphorylation of Smad2 and the amount of MAFbx and MyoD expression were determined. For this purpose, myotube cells were treated with 0.4 μg/ml MSTN alone, or with combination of 0.4 μg/ml MSTN and 1 μg/ml or 10 μg/ml Rh2. Western blotting was performed using pSmad2 antibody, MAFbx antibody, and MyoD antibody respectively.
(§2) The bands of Western blot and the relative fold change values of pSmad2/Smad2, MAFbx/GAPDH and MyoD/GAPDH in each treatment conditions were shown in FIG. 4.

MAFbx = assay: Western blotting of MAFbx in MSTN-induced atrophic myotube cells
Method: as §1, §2

MyoD = assay: Western blotting of MyoD in MSTN-induced atrophic myotube cells
Method: as §1, §2

C2C12 myotube cells = assay: Induction of muscular atrophy cell model: myotube width after MSTN treatment; settings: 24 hours, C2C12 myotubes
Method: The model of muscular atrophy was constructed by differentiating mouse myoblast cell lines (C2C12 ATCC CRL-1772) into myotube cells followed by treating with MSTN.
Specifically, the cell lines were cultured in DMEM (Gibco) supplemented with 10% (v/v) Fetal Bovine Serum (FBS), 100 U/ml penicillin and 100 U/ml streptomycin (Sigma) at 37° C. in 5% CO2. For differentiating the cell lines into myotube cells, the cells were grown to 80-90% confluence and then cultured in DMEM supplemented with 2% (v/v) horse serum (Horse Serum, HS, Gibco). To verify the differentiation into myotube cells, the merge of multiple myoblasts to one long myotube cells were observed by the microscopic images.
In order to induce an atrophy model, differentiated myotube cells were cultured in serum-free DMEM medium for 3 hours, and then MSTN was treated with 0.4 μg/ml, […], 0.8 μg/ml and 1.2 μg respectively for 24 hours. […]
C2C12 myotube cells were fixed with 4% (w/v) paraformaldehyde (Biosesang) for 15 minutes and then treated with 0.2% (v/v) Triton X-100, and blocked with 5% (w/v) BSA for 6 h. […] Images were acquired via HCS equipment (Molecular Devices) and quantified using ImageJ software. The width of myotube cells was quantified by measuring a total of more than 100 myotube cell widths in randomly selected five regions. The width per myotube was determined as the average of three independent measurements.

| Compound | width of myotube as % of that of normal cells ([1]; 0.4 ug/ml MSTN + 1 ug/ml Rh2, 24 hours) | width of myotube as % of that of normal cells ([1]; 0.4 ug/ml MSTN + 10 ug/ml Rh2, 24 hours) | amount of pSmad2 (pSmad2/Smad2) relative to normal conditions (pSmad2/Smad2; 0.4 μg/ml MSTN + 10 ug/ml Rh2) | amount of MAFbx (MAFbx/GAPDH) relative to normal conditions (MAFbx; 0.4 μg/ml MSTN + 10 ug/ml Rh2) | amount of MyoD (MyoD/GAPDH) relative to normal conditions (MyoD; 0.4 μg/ml MSTN + 10 ug/ml Rh2) | decrease of width of myotube compared to the normal (C2C12 myotube cells; 0.4 ug/ml MSTN, control width = 1.0) | decrease of width of myotube compared to the normal (C2C12 myotube cells; as the concentration of MSTN increased (up to 1.2 μg)) | reduction of width of myotube compared to normal cells ([1]; 0.4 ug/ml MSTN alone, 24 hours) | amount of pSmad2 (pSmad2/Smad2), increase compared with normal condition (pSmad2/Smad2; 0.4 μg/ml MSTN alone) | amount of MAFbx (MAFbx/GAPDH), increase compared with normal condition (MAFbx; 0.4 μg/ml MSTN alone) | amount of MyoD (MyoD/GAPDH), % of the normal condition (MyoD; 0.4 μg/ml MSTN alone) |
| --- | --- | --- | --- | --- | --- | --- | --- | --- | --- | --- | --- |
| CC(C)=CCC[C@](C)(O)[C@H]1CC[C@]2(C)[C@@H]1[C@H](O)C[C@@H]1[C@@]3(C)CC[C@H](O[C@@H]4O[C@H](CO)[C@@H](O)[C@H](O)[C@H]4O)C(C)(C)[C@@H]3CC[C@]12C [Rh2, ginsenoside Rh2] | about 70% | above 100% | kept at the same level as normal conditions | kept at the same level as normal conditions | kept at the same level as normal conditions |  |  |  |  |  |  |
| Myostatin [MSTN] |  |  |  |  |  | about 45% | about 60% | about 50% | about 50% | about 50% | about 30% |
